Reference: publication PMC8539010, “Utility of Bioluminescent Homogeneous Nucleotide Detection Assays in Measuring Activities of Nucleotide-Sugar Dependent Glycosyltransferases and Studying Their Inhibitors” (Molecules, 2021)

Tests used:
[1] = molecular target: T1, OGT (O-GlcNAc Transferase) (Homo sapiens, UniProt O15294); assay: UDP-Glo bioluminescent enzyme assay, dose response with OGT peptide and UDP-GlcNAc; format: biochemical
T1 sequence (O15294 2-236 isoform O15294-4): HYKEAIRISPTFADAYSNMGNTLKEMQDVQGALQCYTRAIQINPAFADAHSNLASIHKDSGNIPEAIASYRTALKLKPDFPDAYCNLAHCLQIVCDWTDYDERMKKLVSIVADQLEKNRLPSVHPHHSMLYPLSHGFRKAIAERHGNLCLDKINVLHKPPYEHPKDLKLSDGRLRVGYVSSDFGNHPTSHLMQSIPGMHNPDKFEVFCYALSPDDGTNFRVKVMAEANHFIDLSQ

[2] = molecular target: T2, FUT7 (Fucosyltransferase 7) (Homo sapiens, UniProt Q11130); assay: GDP-Glo bioluminescent enzyme assay, dose response with fetuin and GDP-fucose; format: biochemical
T2 sequence (Q11130 1-342): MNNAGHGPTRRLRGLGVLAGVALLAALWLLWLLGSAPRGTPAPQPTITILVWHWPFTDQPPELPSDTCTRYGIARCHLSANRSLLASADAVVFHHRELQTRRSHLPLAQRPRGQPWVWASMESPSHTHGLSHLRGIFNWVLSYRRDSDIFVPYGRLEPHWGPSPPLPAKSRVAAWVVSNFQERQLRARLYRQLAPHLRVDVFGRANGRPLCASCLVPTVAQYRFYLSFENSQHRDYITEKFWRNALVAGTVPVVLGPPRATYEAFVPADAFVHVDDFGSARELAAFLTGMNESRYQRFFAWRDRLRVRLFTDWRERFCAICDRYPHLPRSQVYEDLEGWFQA

Row | SMILES | IC50 [1] [µM] | IC50 [2] [µM]
1 | O=C(O)C1CC(=O)N(CCC23CC4CC(CC(C4)C2)C3)C(=Nc2ccc(Cl)cc2)S1 (stereo not drawn) [ST045849] | 58 | 
2 | N#Cc1c(SCc2ccc(C(=O)O)cc2)nc2c(c1-c1cccs1)CCCC2 [ST078925] | 55 | 
3 | O=C(O)c1cc(O)c(O)c(O)c1 [Gallic acid] |  | 0.6
